Measured values: ChEMBL document CHEMBL1201862, “PubChem BioAssay data set” (2004)
Calls of active or inactive are those of the source.

Columns and labels:
Hexokinase HKDC1 = biological target: T1, Hexokinase HKDC1 (Homo sapiens, UniProt Q2TB90); experiment: HKDC1 hexokinase inhibitors, dose response, biochemical, W721R variant (AID 504729); format: functional
T1 sequence (Q2TB90 whole entry): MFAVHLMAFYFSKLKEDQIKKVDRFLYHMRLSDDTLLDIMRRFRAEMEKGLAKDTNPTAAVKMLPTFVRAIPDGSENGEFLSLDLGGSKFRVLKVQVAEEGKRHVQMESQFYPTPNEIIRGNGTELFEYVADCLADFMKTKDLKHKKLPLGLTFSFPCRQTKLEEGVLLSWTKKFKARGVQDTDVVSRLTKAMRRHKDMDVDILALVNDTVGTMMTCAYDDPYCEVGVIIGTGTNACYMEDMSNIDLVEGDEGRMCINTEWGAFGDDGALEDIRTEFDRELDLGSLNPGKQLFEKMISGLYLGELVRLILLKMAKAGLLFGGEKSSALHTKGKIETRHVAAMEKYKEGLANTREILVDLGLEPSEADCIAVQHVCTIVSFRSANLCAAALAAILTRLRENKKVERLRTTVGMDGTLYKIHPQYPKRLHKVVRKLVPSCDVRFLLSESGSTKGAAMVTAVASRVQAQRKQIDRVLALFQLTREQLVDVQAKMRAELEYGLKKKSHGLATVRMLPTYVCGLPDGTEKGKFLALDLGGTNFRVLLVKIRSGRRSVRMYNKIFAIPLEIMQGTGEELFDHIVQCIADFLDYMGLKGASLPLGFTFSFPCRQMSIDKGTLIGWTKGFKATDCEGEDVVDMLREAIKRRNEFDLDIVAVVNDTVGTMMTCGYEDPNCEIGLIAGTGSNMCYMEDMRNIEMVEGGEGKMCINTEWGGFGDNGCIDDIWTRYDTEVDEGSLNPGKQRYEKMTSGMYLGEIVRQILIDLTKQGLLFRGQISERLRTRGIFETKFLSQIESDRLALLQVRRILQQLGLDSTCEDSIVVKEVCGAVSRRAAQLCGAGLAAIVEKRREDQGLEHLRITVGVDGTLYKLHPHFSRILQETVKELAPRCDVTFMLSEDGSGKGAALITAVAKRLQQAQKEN

[1] = biological target: T2, Apoptotic protease-activating factor 1 (Homo sapiens, UniProt O14727); format: functional
T2 sequence (O14727 whole entry): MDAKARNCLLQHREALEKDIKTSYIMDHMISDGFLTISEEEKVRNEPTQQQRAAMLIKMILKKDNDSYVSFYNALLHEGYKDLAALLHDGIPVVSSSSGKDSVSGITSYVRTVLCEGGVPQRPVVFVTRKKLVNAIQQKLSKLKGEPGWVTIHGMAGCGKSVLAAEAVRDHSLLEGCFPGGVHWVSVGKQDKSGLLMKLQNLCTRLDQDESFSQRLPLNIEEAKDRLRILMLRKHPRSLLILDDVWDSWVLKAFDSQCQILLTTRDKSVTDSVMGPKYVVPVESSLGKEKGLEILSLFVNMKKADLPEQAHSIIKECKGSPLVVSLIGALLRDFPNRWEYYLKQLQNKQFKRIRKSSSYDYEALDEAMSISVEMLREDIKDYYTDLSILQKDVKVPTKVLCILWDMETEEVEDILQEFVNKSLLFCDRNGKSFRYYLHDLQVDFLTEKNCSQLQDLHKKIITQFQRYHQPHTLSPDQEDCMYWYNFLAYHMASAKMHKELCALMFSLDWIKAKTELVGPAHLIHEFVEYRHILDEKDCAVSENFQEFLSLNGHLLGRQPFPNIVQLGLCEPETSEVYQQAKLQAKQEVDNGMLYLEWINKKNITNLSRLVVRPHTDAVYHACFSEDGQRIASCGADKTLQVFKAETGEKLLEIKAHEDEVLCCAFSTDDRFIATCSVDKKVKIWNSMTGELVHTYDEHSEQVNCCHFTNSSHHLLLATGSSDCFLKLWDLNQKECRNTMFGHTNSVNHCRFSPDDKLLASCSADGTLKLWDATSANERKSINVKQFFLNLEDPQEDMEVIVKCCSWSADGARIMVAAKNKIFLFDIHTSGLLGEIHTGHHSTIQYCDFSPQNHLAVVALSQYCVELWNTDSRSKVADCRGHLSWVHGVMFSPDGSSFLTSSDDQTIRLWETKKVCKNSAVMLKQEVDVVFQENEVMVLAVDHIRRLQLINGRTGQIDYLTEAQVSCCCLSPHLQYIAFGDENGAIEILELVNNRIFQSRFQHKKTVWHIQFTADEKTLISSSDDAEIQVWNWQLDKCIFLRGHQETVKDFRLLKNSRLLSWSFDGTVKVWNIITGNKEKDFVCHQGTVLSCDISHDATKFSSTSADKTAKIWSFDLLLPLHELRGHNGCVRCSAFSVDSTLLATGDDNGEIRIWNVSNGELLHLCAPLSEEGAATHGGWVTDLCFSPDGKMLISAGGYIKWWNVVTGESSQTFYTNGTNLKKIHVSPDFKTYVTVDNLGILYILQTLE

[2] = THP-1 cell cytotoxicity, dose response, cytotoxicity control for non-replicating M. tuberculosis project (AID 489025); format: functional
Cysteine protease ATG4B = biological target: T3, Cysteine protease ATG4B (Homo sapiens, UniProt Q9Y4P1); format: functional;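 further: Fluorescence-based dose-response confirmation assay measuring inhibition of ATG4B activity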
T3 sequence (Q9Y4P1 whole entry): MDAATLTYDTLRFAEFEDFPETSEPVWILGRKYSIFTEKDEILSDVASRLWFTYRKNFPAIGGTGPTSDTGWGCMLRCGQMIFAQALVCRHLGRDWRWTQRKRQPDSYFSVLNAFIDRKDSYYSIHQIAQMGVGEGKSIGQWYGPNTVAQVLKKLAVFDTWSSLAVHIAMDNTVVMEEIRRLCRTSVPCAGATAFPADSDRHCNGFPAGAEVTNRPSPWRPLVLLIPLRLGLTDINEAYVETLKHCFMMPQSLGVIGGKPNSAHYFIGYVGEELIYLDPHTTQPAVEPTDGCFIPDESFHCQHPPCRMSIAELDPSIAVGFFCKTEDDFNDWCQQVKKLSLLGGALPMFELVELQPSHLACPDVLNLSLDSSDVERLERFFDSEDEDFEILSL

cells = format: functional
[3] = biological target: Induced myeloid leukemia cell differentiation protein Mcl-1 (Homo sapiens, UniProt Q07820); format: functional
Induced myeloid leukemia cell differentiation protein Mcl-1, sequence (Q07820 whole entry): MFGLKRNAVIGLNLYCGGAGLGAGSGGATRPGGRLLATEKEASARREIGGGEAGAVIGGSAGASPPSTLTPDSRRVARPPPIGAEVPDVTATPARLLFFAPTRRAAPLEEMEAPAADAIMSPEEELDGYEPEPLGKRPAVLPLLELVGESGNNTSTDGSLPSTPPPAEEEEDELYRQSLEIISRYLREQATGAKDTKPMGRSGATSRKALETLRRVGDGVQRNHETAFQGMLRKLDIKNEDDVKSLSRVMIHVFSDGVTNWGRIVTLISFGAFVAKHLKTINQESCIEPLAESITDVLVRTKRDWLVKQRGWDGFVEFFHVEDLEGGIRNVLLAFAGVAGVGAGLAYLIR

Caspase-8 = Caspase-8 (Homo sapiens, UniProt Q14790); experiment: caspase-8 inhibition counter-screen, dose response, selectivity assay for caspase-6 inhibitor project, biochemical, Z-IETD-R110 fluorescence, cherry-picked samples (AID 743294)
Caspase-8, sequence (Q14790 217-374 limits assumed): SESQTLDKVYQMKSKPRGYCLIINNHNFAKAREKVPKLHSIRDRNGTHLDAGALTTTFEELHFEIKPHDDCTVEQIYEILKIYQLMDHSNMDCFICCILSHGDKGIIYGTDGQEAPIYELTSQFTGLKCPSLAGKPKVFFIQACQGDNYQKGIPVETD
Caspase-8, sequence (Q14790 385-479 limits assumed): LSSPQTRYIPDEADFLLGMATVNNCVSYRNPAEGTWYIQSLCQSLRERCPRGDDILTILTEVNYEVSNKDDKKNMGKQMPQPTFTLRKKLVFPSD

[4] = biological target: T4, Sentrin-specific protease 8 (Homo sapiens, UniProt Q96LD8); format: functional;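 further: luminescence read-out of SENP8 inhibition, dose-response confirmation following an ultra-high-throughput screen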
T4 sequence (Q96LD8 whole entry): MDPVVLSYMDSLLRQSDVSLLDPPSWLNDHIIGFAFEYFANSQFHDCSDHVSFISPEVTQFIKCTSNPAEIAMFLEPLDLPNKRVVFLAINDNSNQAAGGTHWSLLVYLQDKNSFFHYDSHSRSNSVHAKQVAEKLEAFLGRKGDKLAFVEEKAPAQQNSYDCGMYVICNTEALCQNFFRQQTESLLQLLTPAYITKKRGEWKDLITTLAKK

COC(=O)[C@@H]1[C@@H](C(=O)OC)C2(c3ccccc3-c3ccccc32)N(c2ccc(Cl)cc2)N1C#N
inactive: IC50 (Hexokinase HKDC1) 20.4 µM

Nc1ccc2c(c1)C(=O)C(=O)c1ccccc1-2
active: IC50 [1] 0.768 µM | CC50 [2] 2.74 µM | IC50 (Cysteine protease ATG4B) 1.56 µM | IC50 (cells) 7.1 µM

COc1cc(-c2ccc(Nc3ccccc3C(=O)O)c(OC)c2)ccc1Nc1ccccc1C(=O)O
active: IC50 [1] 26.7 µM | IC50 [3] 1.52 µM | AC50 (Caspase-8) 48 µM

COc1ccc(OC)c(Nc2cc3ccccc3c(O)n2)c1
active: IC50 [1] 2.5 µM | IC50 [4] 2.45 µM | AC50 (Caspase-8) 6.14 µM

COC(CNC(=O)c1ccc2c3c(onc13)-c1ccccc1C2=O)OC
active: IC50 [1] 25.2 µM | CC50 [2] 7.86 µM | IC50 (cells) 41.5 µM

O=C(O)c1ccc(NC2=C/C(=N/S(=O)(=O)c3ccccc3)c3ccccc3C2=O)cc1
active: IC50 [1] 3.15 µM | IC50 (Cysteine protease ATG4B) 10.1 µM | IC50 [4] 1.38 µM | IC50 [3] 1.65 µM | IC50 (Hexokinase HKDC1) 2.74 µM
